In patent US12252459B2, “Hydrazone amide derivatives and use thereof in preparation of anti-osteoporosis drugs” (SHENZHEN CELL INSPIRE PHARMACEUTICAL DEVELOPMENT CO., LTD., priority 2019, dated 2025):

What was measured:
[1] = system: RANKL-induced osteoclast differentiation of RAW264.7 cells; assay: Osteoclast differentiation inhibition experiment (RANKL-induced, TRAP staining); assay type: cell-based; conditions: for IC50: RAW264.7 cells, 100 ng/ml RANKL, 5 days, TRAP staining, osteoclasts with 3 or more nuclei counted; for Therapeutic index SI (CC50/IC50): selective inhibition constant = CC50 (RAW264.7 cytotoxicity) / IC50 (osteoclast differentiation)
Experimental: Example 33: Osteoclast Differentiation Inhibition Experiment
(§1) RAW264.7 cells were cultured in vitro using DMEM high glucose medium containing 10% fetal bovine serum at 37° C. under 5% CO2 for routine maintenance culture and passage.
(§2) S2. Compound Intervention
The logarithmic growth phase cells were collected and formulated into a cell suspension at a concentration of 2×10^4 cells/mL, and the cell suspension were added to a 96-well cell culture plate. After culturing in a carbon dioxide incubator for 24 hours, the culture medium was replaced with a medium containing 100 ng/ml RANKL and the compound at different concentrations to continue culturing for 5 days, while changing the medium containing the same RANKL concentration and compound concentration every 2 days. The osteoclasts were stained with the TRAP staining method and measured on day 5. Three wells were set for each concentration, and a control group without the compound treatment was set for comparison.
The differentiated osteoclasts were stained with TRAP kit, and the number of osteoclasts fused by 3 or more nuclei was counted.
(§3) S4. Processing of Results
The inhibition rate of each compound on RANKL-induced osteoclast differentiation was calculated according to the following equation: […]
An osteoclast differentiation inhibition curve of each compound was plotted with the osteoclast differentiation inhibition rate as the ordinate and the logarithm of the compound concentration as the abscissa. According to the osteoclast differentiation inhibition rate by each compound, the half maximal inhibitory concentration IC50 was calculated, i.e., the concentration of the compound that is required for 50% osteoclast differentiation inhibition.
(§4) In addition, a selective inhibition constant of each compound was calculated according to the equation: selective inhibition constant (SI)=CC50/IC50, in order to evaluate the administration safety of each compound.
Based on the value of the selective index SI=CC50/IC50, the anti-osteoporotic differentiation effect of the compound was evaluated according to the following criteria.

[2] = Cytotoxicity assay (MTT) on RAW264.7 cells; assay type: cell-based; conditions: mouse, RAW264.7 cell growth inhibition, MTT method
Experimental: Example 32: Cytotoxicity Assay of Compounds
as §1, §2
The logarithmic growth phase cells were collected and formulated into a cell suspension at a concentration of 1×10^5 cells/mL, and the cell suspension was added to a 96-well cell culture plate. After culturing in a carbon dioxide incubator for 24 hours, the culture medium was replaced with a medium containing the compound at different concentrations to continue culturing for 2 days, and the cytotoxicity was detected on day 3. The compound to be tested was prepared into solutions of different concentrations using DMSO. Three wells were set for each concentration, and a control group without the compound treatment was set for comparison. […]
as §3
The RAW264.7 cell growth inhibition rate by each compound was calculated according to the following equation: […]
A cell growth inhibition curve of each compound was plotted with the RAW264.7 cell growth inhibition rate as the ordinate and the logarithm of the compound concentration as the abscissa. According to the inhibition rate of each compound on the cells, the 50% cytotoxic concentration CC50 was calculated, i.e., the concentration of the compound that is required for 50% inhibition of cell growth.
as §4

SMILES	IC50 ([1]; Mus musculus, RAW264.7, 120 h) [µM]	Therapeutic index SI (CC50/IC50) [1]	CC50 at 2 days [2] [µM]	IC50 [1] [µM]
CCOC(=O)c1sc(NC(=O)/C(=N/Nc2c(C)cccc2C(=O)O)C(C)=O)nc1C [Compound 7]	0.99	63	62.8	–
CC(=O)/C(=N\Nc1ccccc1C(=O)O)C(=O)NC1CCNCC1 [Compound 26]	8.85	7	65.8	–
CC(=O)/C(=N\Nc1ccccc1C(=O)O)C(=O)N1CCc2ccccc2C1 [Compound 27]	9.03	15	135	–
CC(=O)/C(=N\Nc1ccccc1C(=O)O)C(=O)Nc1cccc(O)n1 [Compound 30]	15.4	13	198	–
CCOC(=O)c1sc(NC(=O)/C(=N/Nc2cc(C)ccc2C(=O)O)C(C)=O)nc1C [Compound 8]	3.85	15	57.2	–
CCOC(=O)c1sc(NC(=O)/C(=N/Nc2ccccc2O)C(C)=O)nc1C [Compound 5]	2.45	21	52.6	–
CCOC(=O)c1sc(NC(=O)/C(=N/Nc2ccc([N+](=O)[O-])cc2C(=O)O)C(C)=O)nc1C [Compound 14]	0.89	47	41.9	–
CC(=O)/C(=N\Nc1ccccc1C(=O)O)C(=O)Nc1ccccc1 [Compound 24]	11.1	7	75.2	–
CCOC(=O)c1sc(NC(=O)/C(=N/Nc2cc(F)ccc2C(=O)O)C(C)=O)nc1C [Compound 11]	1.02	56	57.2	–
CC(=O)/C(=N\Nc1ccccc1C(=O)O)C(=O)N1CCOCC1 [Compound 28]	0.99	77	76.2	–
CCOC(=O)c1sc(NC(=O)/C(=N/Nc2ccc(Cl)cc2C(=O)O)C(C)=O)nc1C [Compound 15]	1.56	22	33.9	–
CCOC(=O)c1sc(NC(=O)/C(=N/Nc2c(C(=O)O)cccc2C(=O)O)C(C)=O)nc1C [Compound 18]	0.46	271	125	–
CCOC(=O)c1sc(NC(=O)/C(=N/Nc2ccccc2C(=O)O)C(C)=O)nc1C [Compound 1]	1.24	50	62.5	–
CCOC(=O)c1sc(NC(=O)/C(=N/Nc2ccc(C)cc2C(=O)O)C(C)=O)nc1C [Compound 9]	4.63	19	89	–
CCOC(=O)c1sc(NC(=O)/C(=N/Nc2ccncc2C(=O)O)C(C)=O)nc1C [Compound 16]	22.3	20	451	–
CCOC(=O)c1sc(NC(=O)/C(=N/Nc2cccc(C(=O)O)c2)C(C)=O)nc1C [Compound 3]	–	1625	81.2	0.05
CC(=O)/C(=N\Nc1ccccc1C(=O)O)C(=O)Nc1nccs1 [Compound 22]	3.66	41	149	–
CC(=O)/C(=N\Nc1ccccc1C(=O)O)C(=O)Nc1ccc(C#N)cn1 [Compound 29]	3.21	37	119	–
CC(=O)/C(=N\Nc1ccccc1C(=O)O)C(=O)Nc1nc(C)cs1 [Compound 21]	2.58	85	220	–
CCOC(=O)c1sc(NC(=O)/C(=N/Nc2cc(C(=O)O)ccc2C(=O)O)C(C)=O)nc1C [Compound 19]	10.2	20	202	–
CCOC(=O)c1sc(NC(=O)/C(=N/Nc2ccc(F)cc2C(=O)O)C(C)=O)nc1C [Compound 10]	0.4	308	123	–
CCOC(=O)c1sc(NC(=O)/C(=N/Nc2cc(C#N)ccc2C(=O)O)C(C)=O)nc1C [Compound 13]	0.88	71	62.3	–
CC(=O)/C(=N\Nc1ccccc1C(=O)O)C(=O)Nc1nc2ccccc2s1 [Compound 23]	0.78	53	41.1	–
CC(=O)/C(=N\Nc1ccccc1C(=O)O)C(=O)Nc1ccccn1 [Compound 25]	0.36	301	81.2	0.27
CCOC(=O)c1sc(NC(=O)/C(=N/Nc2ccc(C(=O)O)cc2)C(C)=O)nc1C [Compound 2]	0.73	95	69.2	–
CCOC(=O)c1sc(NC(=O)/C(=N/Nc2ccccc2C(=O)OC)C(C)=O)nc1C [Compound 4]	1.26	65	82.1	–
CCOC(=O)c1sc(NC(=O)/C(=N/Nc2c(C#N)cccc2C(=O)O)C(C)=O)nc1C [Compound 12]	–	1701	391	0.23
CCOC(=O)c1sc(NC(=O)/C(=N/Nc2ccccc2CO)C(C)=O)nc1C [Compound 6]	12.1	6	77.9	–
CCOC(=O)c1sc(NC(=O)/C(=N/Nc2ccc(N)cc2C(=O)O)C(C)=O)nc1C [Compound 20]	1.23	40	49.1	–
